Laboratory results reported in a melting point compilation (Tetko et al.).

| Structure (SMILES) | melting point |
| --- | --- |
| Cc1ccc(C(=O)CBr)cc1[N+](=O)[O-] | 45 to 47 °C |
| Cc1cc(N)ccc1NS(C)(=O)=O | 141 to 143 °C |
| CCOC(=O)NC(=N)N | 104 to 106 °C |
| CNS(=O)(=O)c1ccc(C#N)cc1 | 128 to 130 °C |
| NNC(=O)CCc1ccco1 | 72 to 74 °C |
| Cc1c([N+](=O)[O-])cccc1S(=O)(=O)Cl | 47 to 49 °C |
| Cc1c[nH]c(=O)n1-c1ccccc1F | 211 to 213 °C |
| CNC(C)c1ccc(S(C)=O)cc1 (stereo not given) | 52 to 54 °C |
| Cc1ccc(O)c(C(=O)Nc2nc(CC(=O)O)cs2)c1 | 271 to 273 °C |
| Cc1noc(-c2ccc(N)c(Cl)c2)n1 | 141 to 143 °C |
| O=C(O)c1ccc(Br)c(S(=O)(=O)Cl)c1 | 181 to 183 °C |
| O=C(O)C1SCCS1 | 84 to 86 °C |
| Nc1ccc(CN2CCN(Cc3ccccc3)CC2)cc1 | 96 to 98 °C |
| Nc1ccc(C(=O)N2CCCC2)c(F)c1 | 139 to 141 °C |
| CC(=O)Nc1[nH]c(=O)ccc1[N+](=O)[O-] | 182 to 184 °C |
| COc1ccccc1C(O)c1ccccn1 (stereo not given) | 57 to 59 °C |
| N#Cc1cc(S(N)(=O)=O)ccc1F | 142 to 144 °C |
| Clc1ccc(-c2cc3ncnc(Cl)c3s2)cc1 | 188 to 190 °C |
| CCOC(=O)CSc1nnc(-c2cccs2)o1 | 53 to 55 °C |
| OCc1cnc2ccccn12 | 123 to 125 °C |
| O=C(CN1CCNCC1)N1CCc2ccccc21 | 139 to 141 °C |
| Nc1ncc(-c2ccccc2)s1 | 198 to 200 °C |
| CCc1cc(NN)nc(-c2ccccn2)n1 | 110 to 112 °C |
| CC(C)c1nnc(N)o1 | 184 to 186 °C |
| NS(=O)(=O)c1ccc(F)c(C(=O)O)c1F | 139 to 141 °C |

| Structure (SMILES) | melting point |
| --- | --- |
| O=C(O)c1cc(N2CCOCC2)ccn1 | 257 to 259 °C |
| O=C(O)c1nnn(-c2cccc(C(F)(F)F)c2)c1C1CC1 | 169 to 171 °C |
| COc1ncnc(N(C)C)c1N | 69 to 71 °C |
| Brc1cccc(-n2cnnn2)c1 | 90 to 92 °C |
| CCOC(=O)c1c(C)[nH]c(C(C)=O)c1C | 115 to 117 °C |
| Cc1cc(C(=O)CCl)c(C)cc1Br | 79 to 81 °C |
| O=S1(=O)CCC2(CC1)CO2 | 168 to 170 °C |
| Nc1cc(-c2cc(F)cc(F)c2)[nH]n1 | 110 to 112 °C |
| CC(C)CC(=O)NCCc1ccc(S(=O)(=O)Cl)s1 | 79 to 81 °C |
| Cn1ccc(C(=O)N2CCCCC2CC(=O)O)cc1=O (stereo not given) | 194 to 196 °C |
| O=C(O)c1ccn[nH]1 | 212 to 216 °C |
| O=C(NCC(F)(F)F)c1ccc(Br)cc1 | 119 to 121 °C |
| Cc1ccc(NC(=O)N(C)C)c(C(=O)O)c1 | 163 to 165 °C |
| COC(=O)c1cc([N+](=O)[O-])cnc1C | 58 to 60 °C |
| CCn1nc(C(C)C)cc1C(=O)O | 115 to 117 °C |
| N#Cc1cc2c(nc1Cl)CCC2 | 126 to 128 °C |
| COc1cc(C=O)cc(Cl)c1OCC(N)=O | 166 to 170 °C |
| O=C(O)c1ccc(NC(=O)c2ccccc2I)cc1 | 275 to 277 °C |
| Brc1ccc(C2CNCCO2)cc1 (stereo not given) | 53 to 55 °C |
| CCC1CCc2[nH]c(=O)c(C#N)cc2C1 (stereo not given) | 224 to 226 °C |
| NC(C(=O)O)c1cccc(Br)c1 (stereo not given) | 221 to 223 °C |
| CCCOc1ccc(C=O)cc1OCC | 36 to 38 °C |
| O=C(O)C1CCN(S(=O)(=O)c2cccnc2)CC1 | 237 to 239 °C |
| O=C(O)CN(C(=O)c1ccc(Br)o1)c1ccccc1 | 129 to 131 °C |
| CC(=O)c1ccc(S(=O)(=O)NCCCC(=O)O)cc1 | 140 to 142 °C |

| Structure (SMILES) | melting point |
| --- | --- |
| O=C(NCCO)c1cccnc1 | 74 to 76 °C |
| COc1ccc(C(=O)c2ccc(OC)cc2OC)cc1 | 69 to 73 °C |
| CN1CCC(C)(O)CC1 | 62 to 64 °C |
| Nc1cc(Cl)c(N)cc1Cl | 164 to 166 °C |
| O=C(O)C=NNc1ccc(F)cc1 | 87 to 89 °C |
| CNc1ccc(C(=O)N2CCOCC2)cc1C | 107 to 109 °C |
| CC(C)(C)OC(=O)NCc1cc[nH]n1 | 104 to 106 °C |
| COc1ccc(-c2nnc(S)n2C(C)C)cc1 | 218 to 220 °C |
| N#Cc1ccc(S(=O)(=O)Cl)c([N+](=O)[O-])c1 | 119 to 121 °C |
| O=C(O)c1cc(S(=O)(=O)Cl)cc(F)c1Cl | 149 to 151 °C |
| Cc1c(C(=O)C(=O)O)sc2ccccc12 | 156 to 158 °C |
| CCOc1ccc2cc(C(=O)O)[nH]c2c1 | 168 to 170 °C |
| c1ccc(-c2cc[nH]c2)nc1 | 126 to 128 °C |
| Cc1ccc(C)c(C(C)Nc2ccc(C(=O)O)cc2C)c1 (stereo not given) | 211 to 213 °C |
| Brc1cccc2[nH]ncc12 | 165 to 167 °C |
| FC(F)(F)c1ccnc(N2CCNCC2)n1 | 49 to 51 °C |
| O=C1CC(=O)CC2(CCCCC2)C1 | 169 to 171 °C |
| O=C(O)c1ccccc1N1CCOCC1 | 58 to 60 °C |
| Cc1cnc(Cl)cc1O | 173 to 175 °C |
| CC(=O)Nc1cccs1 | 146 to 148 °C |
| O=C(O)c1ccc(OC2CCCCC2)cc1 | 184 to 186 °C |
| CC(=O)NCCc1ccc(S(=O)(=O)Cl)cc1 | 131 to 133 °C |
| N#CCOc1ccc(CBr)cc1 | 74 to 76 °C |
| Cc1c(N)cccc1S(N)(=O)=O | 212 to 214 °C |
| COc1ccnc(NCc2cccc(C(=O)O)c2)n1 | 219 to 221 °C |

| Structure (SMILES) | melting point |
| --- | --- |
| CN(C)C=C1C(=O)CCC1=O | 89 to 91 °C |
| CC(=O)Nc1ccc(CCO)cc1 | 106 to 108 °C |
| COc1cc(C(=O)O)cc(NC(C)=O)c1OC | 229 to 231 °C |
| Cc1nnc(S)n1C1CCCCC1 | 164 to 166 °C |
| O=C1CCCC(C(F)(F)F)N1 (stereo not given) | 123 to 125 °C |
| Cc1cc(N)nn1-c1cccc(F)c1 | 69 to 71 °C |
| O=C(O)c1ccc2nc(S)oc2c1 | 295 to 297 °C |
| CC(Cl)C(=O)NC12CC3CC(CC(C3)C1)C2 (stereo not given) | 103 to 105 °C |
| O=C(Nc1ccncc1)OCC(F)(F)F | 193 to 195 °C |
| CC(Cl)C(=O)Nc1ccc(OCc2ccccc2)cc1 (stereo not given) | 141 to 145 °C |
| CC(C)NC(=O)Nc1ccccc1N | 317 to 319 °C |
| NS(=O)(=O)c1ccc(N2CCC(C(=O)O)CC2)c([N+](=O)[O-])c1 | 181 to 183 °C |
| CC1CCC(CC(=O)O)CC1 (stereo not given) | 58 to 60 °C |
| O=[N+]([O-])C=Cc1ccc(SC(F)(F)F)cc1 | 136 to 138 °C |
| NNC(=O)CSc1ccccc1O | 134 to 136 °C |
| CC(C)(C)n1nc(C(=O)O)cc1C1CC1 | 119 to 121 °C |
| O=C(CCl)Nc1ccc(F)cc1Cl | 76 to 78 °C |
| O=C(O)c1cccn1Cc1ccccn1 | 172 to 174 °C |
| CCNc1nc(C(=O)OCC)cs1 | 92 to 94 °C |
| O=C(Nc1ccc(O)c(C(=O)O)c1)c1cc(Cl)cc(Cl)c1 | 288 to 290 °C |
| Cc1nn(-c2ccc(Cl)cc2)c(C)c1CC(=O)O | 178 to 180 °C |
| Nc1ccc2c(c1)C(=O)N(c1ccc(F)cc1)C2=O | 211 to 213 °C |
| Cc1nn(C)c(-n2cncn2)c1N | 96 to 98 °C |
| OCCc1c[nH]nc1C(F)(F)F | 90 to 92 °C |
| O=S(=O)(Nc1ccc(F)c(F)c1)c1ccc(Cl)nc1 | 159 to 161 °C |

| Structure (SMILES) | melting point |
| --- | --- |
| NC(=O)Cn1cc(C(=O)O)nn1 | 198 to 200 °C |
| O=C(O)Cc1csc(NC(=O)c2ccc(Br)o2)n1 | 214 to 216 °C |
| N#Cc1c(F)cccc1-n1ccc(N)n1 | 134 to 136 °C |
| Cc1ccc(I)c(O)c1 | 62 to 64 °C |
| Cc1cc(C)c2nc(N)sc2c1 | 135 to 137 °C |
| O=C(O)c1cc2ccccc2cc1NS(=O)(=O)c1ccc(F)cc1 | 203 to 205 °C |
| CC(C)(C)OC(=O)N1CCC(C)(C(=O)O)CC1 | 149 to 151 °C |
| CCC(O)c1ccc(O)cc1 (stereo not given) | 81 to 83 °C |
| CS(=O)(=O)c1ccc(NN)cc1 | 132 to 134 °C |
| CS(=O)(=O)Nc1ccc(C(F)(F)F)cc1N | 126 to 128 °C |
| COc1ccc(CNc2nnc(S)s2)cc1 | 137 to 139 °C |
| CC(=O)N1CCCc2cc(C(=O)O)ccc21 | 184 to 186 °C |
| Nc1ccc(F)c(S(=O)(=O)NC2CC2)c1 | 107 to 109 °C |
| Cc1ccc(NC(=O)C2CSCN2)c(C)c1 (stereo not given) | 89 to 91 °C |
| Cc1ccccc1-n1c(C)cc(C=O)c1C | 71 to 73 °C |
| O=C(COc1ccc(F)cc1)N1CCNCC1 | 89 to 91 °C |
| NNc1ccnc(F)c1 | 98 to 100 °C |
| COc1ccccc1OCC(=O)Nc1cccc(N)c1 | 104 to 106 °C |
| O=C(O)CCC(=O)c1ccc(S(=O)(=O)Cl)cc1 | 126 to 128 °C |
| Cn1cc(NC(=O)OCC(F)(F)F)ccc1=O | 208 to 210 °C |
| Nc1cccc(-c2nnc3n2CCCCC3)c1 | 200 to 202 °C |
| Cc1c(NS(=O)(=O)c2ccc(Cl)c([N+](=O)[O-])c2)c(=O)n(-c2ccccc2)n1C | 227 to 229 °C |
| O=S(=O)(c1ccc2c(c1)CCC2)N1CCNCC1 | 90 to 92 °C |
| Cc1oc(S(N)(=O)=O)cc1C(=O)O | 209 to 211 °C |
| CN(C)CC(C)(C)CNC(N)=S | 121 to 123 °C |

| Structure (SMILES) | melting point |
| --- | --- |
| NCc1nc(-c2ccc(Cl)cc2)cs1 | 105 to 107 °C |
| Cc1cc(OCC(=O)O)no1 | 123 to 125 °C |
| CN(C)C(=O)CNc1ccccc1 | 114 to 116 °C |
| Sc1nnc(C2CC2)n1Cc1ccccc1 | 176 to 178 °C |
| O=C(O)c1cccc(OCc2cccc(Cl)c2)c1 | 144 to 146 °C |
| N#Cc1c(O)c(Cl)c(Cl)c(C#N)c1Cl | 256 to 258 °C |
| Cc1cc(C(=O)CCl)c(C)n1CC1CCCO1 (stereo not given) | 88 to 90 °C |
| CN1CC(=O)N(c2ccc([N+](=O)[O-])cc2)C1=O | 161 to 163 °C |
| N=C1NCCO1 | 69 to 71 °C |
| CC1CCCC(C)N1S(=O)(=O)c1ccc(N)cc1 (stereo not given) | 215 to 217 °C |
| O=C(NCc1ccccc1)OCC(F)(F)F | 62 to 66 °C |
| CC(C)CN1CCC(C(=O)O)CC1 | 75 to 77 °C |
| CCOc1ccc(NC(=O)CCl)cc1 | 149 to 151 °C |
| O=Cc1cn(-c2ccc(Cl)c(Cl)c2)nn1 | 175 to 177 °C |
| c1c[nH]c(C2CCCCN2)n1 (stereo not given) | 144 to 146 °C |
| Cc1cc(SC#N)cc(C)c1N | 82 to 84 °C |
| OCc1nc2cc(Br)ccc2[nH]1 | 179 to 181 °C |
| COc1ccccc1-c1ncc(C(=O)O)[nH]1 | 219 to 221 °C |
| Cc1ccc(-c2csc(CC(N)=NO)n2)cc1 | 146 to 148 °C |
| CCN1N=C(C(F)(F)F)CC1=O | 169 to 171 °C |
